Experimental data from patent EP0745083B1, “2-HETEROARYL-5,11-DIHYDRO-6H-DIPYRIDO [3,2-b:2',3'-e][1,4]DIAZEPINES AND THEIR USE IN THE PREVENTION OR TREATMENT OF HIV INFECTION” (BOEHRINGER INGELHEIM PHARMACEUTICALS INC., priority 1994, dated 1995).

Key:
[1] = target: T1, HIV-1 RT wild type (WT) enzyme (Human immunodeficiency virus type 1 group M subtype B, UniProt P03367); assay: Reverse Transcriptase (RT) Assay, wild type enzyme (RNA-dependent DNA polymerase activity); type: biochemical, Human Immunodeficiency Virus (HIV-1); settings: 1 µM compound; for inhibition at 1 µM: read-out: Reverse Transciptase Assay % inhibition (1 µM) WT
T1 construct: Reverse transcriptase enzyme from the LAV strain of Human Immunodeficiency Virus (HIV-1) (1) was isolated from the bacterial strain JM109; made in house; host or cells: E. coli JM109 (clone pBRTprt1+ in vector pIBI21, lac promoter)
Description: Utilizing the Reverse Transcriptase (RT) Assay described below, compounds can be tested for their ability to inhibit the RNA-dependent DNA polymerase activity of HIV-1 RT. Certain specific compounds described in the Examples which appear below, were so tested.
(§1) Among the enzymes for which Human Immunodeficiency Virus (HIV-1) encodes is a reverse transcriptase (1), so-named because it transcribes a DNA copy from an RNA template. This activity can be quantitatively measured in a cell-free enzyme assay, which has been previously described (2), and is based upon the observation that reverse transcriptase is able to use a synthetic template [poly r(C) primed with oligo d(G)] to transcribe a radio-labelled, acid-precipitable DNA strand utilizing ^3H-dGTP as a substrate. The assay described below utilizes the wild type (WT) enzyme, which is the predominant form of the enzyme observed in patients infected with HIV-1. Utilization of mutant RT eraymes (Y181C and Y181L, prepared by site-directed mutagenesis in which the tyrosine residue at codon 181 has been replaced by a cysteine or a leucine residue, respectively) and analogous assay conditions allows compounds to be evaluated for their effectiveness at inhibiting these mutant enzymes.
Reverse transcriptase enzyme from the LAV strain of Human Immunodeficiency Virus (HIV-1) (1) was isolated from the bacterial strain JM109 (3) expressing the DNA clone pBRTprt1+ (2) which is under the control of the lac promotor in the expression vector pIBI21 (4). An overnight culture grown in 2XYT medium (37°C, 225 rpm) (5) supplemented with 100 µg/mL ampicillin for positive selection is inoculated at a 1:40 dilution into M9 medium supplemented with 10µg/mL thiamine, 0.5% casamino acids, and 50 µg/mL ampicillin (5). The culture is incubated (37°C, 225 rpm) until it reaches an OD540 of 0.3-0.4. At that time the repressor inhibitor IPTG (isopropyl β-D-thiogalactopyranoside) is added to 0.5mM, and the mixture is incubated for 2 additional hours. Bacteria are pelleted, resuspended in a 50mM Tris, 0.6mM EDTA, 0.375M NaCl buffer and digested by the addition of lysozyme (1mg/mL) for 30 minutes on ice. The cells are lysed by the addition of 0.2% NP-40 and brought to 1M NaCl.
After removal of the insoluble debris by centrifugation, the protein is precipitated by the addition of 3 volumes of saturated aqueous ammonium sulfate. The enzyme is pelleted, resuspended in RT buffer (50mM Tris pH 7.5, 1mM EDTA, 5mM DTT, 0.1% NP-40, 0.1M NaCI, and 50% glycerol), and stored at -70°C for further use.
The 2X concentrated stock reaction mixture is aliquoted and stored at -20°C. The mixture is stable and thawed for use in each assay. This enzyme assay has been adapted to a 96 well microtiter plate system, and has been previously described (6). Tris buffer (50 mM, pH 7.4), vehicle (solvent diluted to match the compound dilution), or compounds in vehicle are dispensed into 96-well microtiter plates (10µL/well; 3 wells/ compound). The HIV-1 RT enzyme is thawed, diluted in 50mM Tris pH 7.4 so that fifteen µL of diluted enzyme contain 0.001 Unit (one unit is that amount of enzyme to transform 1 micromole of substrate per minute at 25°C), and fifteen µL are dispensed per well. Twenty µL of 0.12-0.5M EDTA are added to the first three wells of the microtiter plate. EDTA chelates the Mg^++ present and prevents reverse transcription. This group serves as background polymerization which is subtracted from all other groups. Twenty-five ul of the 2X reaction mixture are added to all wells and the assay is allowed to incubate at room temperature for 60 minutes. The assay is terminated by precipitating the DNA in each well with 50µL of 10% trichloracetic acid (TCA) (10% w/v) in sodium pyrophosphate (1% w/v). The microtiter plate is incubated for 15 minutes at 4°C and the precipitate is fixed onto #30 glass fiber paper (Schleicher & Schuell) using a Skatron semi-automatic harvester. […]

HIV-1 RT Y181C = target: T2, HIV-1 RT Y181C (Human immunodeficiency virus type 1 group M subtype B, UniProt P03367, Y780C); assay: Reverse Transcriptase (RT) Assay, Y181C mutant enzyme; type: biochemical, Human Immunodeficiency Virus (HIV-1); settings: 1 µM compound; for inhibition at 1 µM: read-out: Reverse Transciptase Assay % inhibition (1 µM) Y181C
T2 construct: Utilization of mutant RT eraymes (Y181C and Y181L, prepared by site-directed mutagenesis); made in house
Description: as §1
The 2X concentrated stock reaction mixture is aliquoted and stored at -20°C. The mixture is stable and thawed for use in each assay. This enzyme assay has been adapted to a 96 well microtiter plate system, and has been previously described (6). Tris buffer (50 mM, pH 7.4), vehicle (solvent diluted to match the compound dilution), or compounds in vehicle are dispensed into 96-well microtiter plates (10µL/well; 3 wells/ compound). The HIV-1 RT enzyme is thawed, diluted in 50mM Tris pH 7.4 so that fifteen µL of diluted enzyme contain 0.001 Unit (one unit is that amount of enzyme to transform 1 micromole of substrate per minute at 25°C), and fifteen µL are dispensed per well. Twenty µL of 0.12-0.5M EDTA are added to the first three wells of the microtiter plate. EDTA chelates the Mg^++ present and prevents reverse transcription. This group serves as background polymerization which is subtracted from all other groups. Twenty-five ul of the 2X reaction mixture are added to all wells and the assay is allowed to incubate at room temperature for 60 minutes. The assay is terminated by precipitating the DNA in each well with 50µL of 10% trichloracetic acid (TCA) (10% w/v) in sodium pyrophosphate (1% w/v). The microtiter plate is incubated for 15 minutes at 4°C and the precipitate is fixed onto #30 glass fiber paper (Schleicher & Schuell) using a Skatron semi-automatic harvester. The filters are then washed with additional TCA (5%) containing sodium pyrophosphate (1%), rinsed with aqueous ethanol (70%), dried, and transferred to scintillation vials (6). Each vial receives 2 mL of scintillation cocktail and is counted in a Beckman beta counter. The calculation for percent inhibition is as follows: % inhibition =(CPM Mean Test Value - CPM Mean Control Value X100)/(CPM Mean Control Value) [formula]

HIV-1 RT Y188L = target: T3, HIV-1 RT Y188L (Human immunodeficiency virus type 1 group M subtype B, UniProt P03367, Y787L); assay: Reverse Transcriptase (RT) Assay, Y188L mutant enzyme; type: biochemical, Human Immunodeficiency Virus (HIV-1); settings: 1 µM compound
T3 construct: effective against the reverse transcriptase of many mutant viruses; made in house

MTT assay (cytotoxicity) = type: cell-based; settings: human; H9 cells; five days incubation
Protocol: In order to roughly assess the cytotoxicity of the compounds provided by the invention, several such compounds were tested in the MTT Assay described below. Compounds having a relatively high CC50 are preferred.
The MTT [3-(4,5-dimethylthiazol-2-yl)-2,5 diphenyl tetrazolium bromide) assay is based on cleavage of tetrazolium bromide by metabolically active cells, resulting in a highly quantitative blue color. This assay has been previously described (1) but has been optimized for the purposes of the testing reported herein.
The H9 cell line (2), an established human lymphoma suspension cell line grown in RPMI 1640 supplemented with 10% fetal bovine serum, is used as the target cell line in the assay. Cells (100µL) are plated in microtest plate wells at a concentration of 10^5 cells per mL in the presence of varying concentrations of inhibitor. The cells are incubated at 37°C in a humidified CO2 incubator. Five days later, 20µL of MTT (5mg/mL in RPMI 1640, sonicated, 0.2 micron filtered, and stored at 4°C) is added to each well. After 4 hours additional incubation at 37°C, 60µL of Triton-X is added to each well and thoroughly mixed to aid the solubilization of the crystals. Absolute ethanol (5µL) is added to each well and the resulting mixture is incubated for 30 minutes at 60°C and immediately read on a plate reader (Dynatech) at a wavelength of 570nm.
Data from this assay are used to generate a nonlinear regression analysis which yields an CC50.

[2] = system: HTLV-IIIB strain of HIV-1; assay: Syncytia (human T-cell culture) assay; type: cell-based; settings: Human immunodeficiency virus 1, IIIB, 96 h; c8166 cells; read four days after virus challenge
Protocol: In order to confirm that compounds which are active in the RT Assay also have the ability to inhibit HIV replication in a living system, compounds according to the invention were also tested in the human T-Cell Culture (Syncytia) Assay described below.
Formation of syncytia is a feature of in vitro cultures of CD4+ T-cells infected with HIV-1. In this assay, T-cells are treated with a putative replication inhibiting compound and then infected with HIV-1. After incubation, the culture is checked for the formation of syncytia. The absence or reduction in the number of syncytia is used as a measure of the test compound's ability to inhibit HIV replication.
The target cells, designated c8166, are a subclone of human lymphoma cells of T-cell origin and are established at an initial density of 5x10^4 per 100 ul in RPMI 1640 (+ 10% fetal bovine serum) culture medium in 96 well flat bottom plates. A selected amount of test compound, dissolved in DMSO, is included. After 24 hours, 50-100 TCID50's (the dose that results in induced effect in 50% of test cultures) of the HTLV-IIIB strain of HIV-1 (2) are inoculated into each culture. Control cultures receive compound or virus only. Four days after virus challenge, cultures are visually examined for the frequency and distribution of virus-induced giant cell syncytia. The percent inhibition by the test compound is determined by comparison with control values. Confirmation of the presence or absence of virus replication is accomplished by harvesting the cell free culture fluids from all experimental groups to determine the presence or absence of infectious progeny through the induction of syncytia formation in secondary human T-cell cultures after 3 days.

CCN1c2ncccc2C(=O)N(C)c2ccc(-c3cnn(CC)c3)nc21 [Example 2, 5,11-Dihydro-11-ethyl-2-(1-ethylpyrazol-4-yl)-5-methyl-6H-dipyrido[3,2-b:2',3'-e][1,4]-diazepin-6-one]
inhibition at 1 µM [1]: 67% | inhibition at 1 µM (HIV-1 RT Y181C): 72% | Reverse Transciptase Assay % inhibition (1 µM) Y188L (HIV-1 RT Y188L): 13% | CC50 at 120 h (MTT assay (cytotoxicity)): > 60 µM

CCCN1c2nc(-c3cn[nH]c3)ccc2NC(=O)c2cccnc21 [Example 4, 5,11-Dihydro-11-n-propyl-2-(4-pyrazolyl)-6H-dipyrido[3,2-b:2',3'-e][1,4]diazepin-6-one]
inhibition at 1 µM [1]: 60% | inhibition at 1 µM (HIV-1 RT Y181C): 54% | Reverse Transciptase Assay % inhibition (1 µM) Y188L (HIV-1 RT Y188L): 29% | CC50 at 120 h (MTT assay (cytotoxicity)): > 60 µM

CCCN1c2ncccc2C(=O)N(C)c2ccc(-c3cn[nH]c3)nc21 [Example 5, 5,11-Dihydro-5-methyl-11-n-propyl-2-(4-pyrazolyl)-6H-dipyrido[3,2-b:2',3'-e][1,4]diazepin 6-one]
inhibition at 1 µM [1]: 90% | inhibition at 1 µM (HIV-1 RT Y181C): 90% | Reverse Transciptase Assay % inhibition (1 µM) Y188L (HIV-1 RT Y188L): 63% | CC50 at 120 h (MTT assay (cytotoxicity)): > 60 µM

CCN1c2ncccc2C(=O)N(C)c2ccc(-c3ccc[nH]3)nc21 [Example 13, 5,11-Dihydro-11-ethyl-5-methyl-2-(2-pyrrolyl)-6H-dipyrido[3,2-b:2',3'-e][1,4]diazepin-6-one]
inhibition at 1 µM [1]: 88% | inhibition at 1 µM (HIV-1 RT Y181C): 80% | Reverse Transciptase Assay % inhibition (1 µM) Y188L (HIV-1 RT Y188L): 17% | IC50 [2]: 0.16 µM

CN1C(=O)c2cccnc2N(C)c2nc(-c3ccc[nH]3)ccc21 [Example 24, 5,11-Dihydro-5,11-dimethyl-2-(2-pyrrolyl)-6H-dipyrido[3,2-b:2',3'-e][1,4]diazepin-6-one]
inhibition at 1 µM [1]: 39% | inhibition at 1 µM (HIV-1 RT Y181C): 50% | Reverse Transciptase Assay % inhibition (1 µM) Y188L (HIV-1 RT Y188L): 18%

CCN1c2ncccc2C(=O)N(C)c2ccc(-c3cn[nH]c3)nc21 [Example 26, 5,11-Dihydro-11-ethyl-5-methyl-2-(4-pyrazolyl)-6H-dipyrido[3,3-b:2',3'-e][1,4]diazepine-6-one]
Reverse Transciptase Assay % inhibition (1 µM) WT [1]: 64% | Reverse Transciptase Assay % inhibition (1 µM) Y181C (HIV-1 RT Y181C): 33% | Reverse Transciptase Assay % inhibition (1 µM) Y188L (HIV-1 RT Y188L; 1 µM): 20%

CCN1c2ncccc2C(=O)N(C)c2ccc(-c3cc4cc(OC)ccc4[nH]3)nc21 [Example 27, 5,11-Dihydro-11-ethyl-2-(5-methoxyindol-2-yl)-5-methyl-6H-dipyrido[3,2-b:2',3'-e][1,4]-diazepin-6-one]
inhibition at 1 µM [1]: 61% | inhibition at 1 µM (HIV-1 RT Y181C): 45% | Reverse Transciptase Assay % inhibition (1 µM) Y188L (HIV-1 RT Y188L): 58%

CCN1c2ncccc2C(=O)N(C)c2ccc(-c3c[nH]c4ccccc34)nc21 [Example 28, 5,11-Dihydro-11-ethyl-2-(indol-3-yl)-5-methyl-6H-dipyrido[3,2-b:2',3'-e][1,4]diazepin-6-one]
inhibition at 1 µM [1]: 96% | inhibition at 1 µM (HIV-1 RT Y181C): 93% | Reverse Transciptase Assay % inhibition (1 µM) Y188L (HIV-1 RT Y188L): 72% | CC50 at 120 h (MTT assay (cytotoxicity)): > 15 µM
